Laboratory results published in paper PMC4315423 (Journal of Medicinal Chemistry, 2014).
In brackets after ≈: the same amount, converted by molar mass.

Assays:
[1] = aqueous kinetic solubility; type: physicochemical; settings: PBS aqueous buffer
[2] = in vivo pharmacokinetics, plasma and brain, single ip dose in male C57BL/6 mice; design: species or system mouse; settings: ip 30 mg/kg

Question: Which solubility kinetic [1] does the source give for `CN1C(=O)c2ccccc2[S@+]([O-])c2ccc(C(=O)NCCc3cccs3)cc21` [compound 65, 10-Methyl-11-oxo-N-(2-(thiophen-2-yl)ethyl)-10,11-dihydrodibenzo[b,f][1,4]thiazepine-8-carboxamide 5-(S)-Oxide] here?
Answer: 46.5 µg/mL (≈ 113 µM)

Question: What about the “time to reach brain Cmax” value ([2]; brain, C57BL/6 mice) of the same compound?
Answer: ≤ 15 min

Question: And the “behavioural observation after dosing” value ([2]; male C57BL/6 mice, at 5 min after dosing, lasted for about 2 h)?
Answer: appeared less active
